Assay results as given in patent US11090323B2, “Pharmaceutical composition, methods for treating and uses thereof” (Boehringer Ingelheim International GmbH, priority 2013, dated 2021).

Experiments:
[1] = system: patients with T2DM and RI; experiment: Phase III trial of empagliflozin as add-on to existing therapy in patients with T2DM and renal impairment; assay type: in vivo, human
Method: A Phase III trial investigated the efficacy and safety of empagliflozin (EMPA) as add-on to existing therapy for 52 weeks in patients with T2DM and RI. Patients with mild RI (eGFR [MDRD equation] ≥60 to <90 mL/min/1.73 m^2; n=290; mean age 62.6 years; mean BMI 31.5 kg/m^2) received EMPA 10 or 25 mg qd or placebo (PBO). Patients with moderate RI (eGFR ≥30 to <60 mL/min/1.73 m^2; n=374; mean age 64.9 years; mean BMI 30.2 kg/m^2) received EMPA 25 mg qd or PBO. The primary endpoint was change from baseline in HbA1c at week 24. Exploratory endpoints included changes from baseline in fasting plasma glucose (FPG), weight and blood pressure (BP) at week 24 (FIG. 1).

[2] = system: renal glucose absorption; experiment: PK-PD nonlinear mixed-effects model of empagliflozin exposure vs urinary glucose excretion / renal glucose threshold; assay type: in vivo, human
Text: Empagliflozin, a selective and potent SGLT2 inhibitor, reduces renal glucose reabsorption by lowering the renal threshold for glucose (RTG) leading to increased urinary glucose excretion (UGE) and decreased plasma glucose (PG) in patients with type 2 diabetes mellitus (T2DM). This analysis aimed to quantify the impact of empagliflozin on RTG by characterizing the relationship between empagliflozin exposure and UGE in patients with T2DM using nonlinear mixed-effects modeling.
A pharmacokinetic (PK)-pharmacodynamic (PD) model was developed using UGE, PG, PK and estimated glomerular filtration rate (eGFR) data from three Phase I/II trials (N=223; placebo, empagliflozin 1 to 100 mg once daily [QD]). The model assumed that when PG>RTG, UGE increased with increasing PG and eGFR; and when PG≤RTG slight glucose leakage into urine occurred (estimated as fraction reabsorbed [FRAC]). Reabsorption was estimated by a nonlinear function parameterized in terms of maximum reabsorbed glucose concentration (Gmax) and PG concentration to reach half maximum transport (Km). Maximum inhibitory effect (Imax) and half maximal inhibitory concentration (IC50) described inhibition of renal glucose absorption. RTG was calculated as the difference between maximum reabsorption (including drug effect) and KM. The model was evaluated via bootstrap and external predictive check of an empagliflozin renal impairment study.

[3] = system: patients with T2DM and CKD stage 3A, 3B and 4; experiment: Phase III trial of empagliflozin as add-on to existing therapy in patients with T2DM and CKD stage 3A, 3B and 4; assay type: in vivo, human; conditions: EMPA 25 mg; for AEs consistent with urinary tract infection, patients / AEs consistent with volume depletion, patients / adverse events (AEs) reported, patients: 52 weeks
Method: A Phase III trial investigated the efficacy and safety of empagliflozin (EMPA) as add-on to existing therapy for 52 weeks in patients with T2DM and CKD stage 3A, 3B and 4. Patients with CKD stage 3A (eGFR [MDRD equation] ≥45 to <60 ml/min/1.73 m^2; n=180; mean [SD] age 64.5 [8.0] years; mean [SD] BMI 30.5 [5.2] kg/m^2), CKD stage 3B (eGFR ≥30 to <45 ml/min/1.73 m^2; n=194; mean [SD] age 65.2 [9.0] years; mean [SD] BMI 30.0 [5.4] kg/m^2) or CKD stage 4 (eGFR ≥15 to <30 ml/min/1.73 m^2; n=74; mean [SD] age 64.1 [11.1] years; mean [SD] BMI 30.4 [5.6] kg/m^2) received EMPA 25 mg qd or PBO for 52 weeks. In exploratory analyses, we assessed the long-term efficacy and safety of EMPA, including changes from baseline in HbA1c, fasting plasma glucose (FPG), weight and systolic and diastolic blood pressure (SBP and DBP) at week 52 (FIG. 7).

[4] = system: the diabetic; conditions: metformin on its own; cited from earlier work

OC[C@H]1O[C@@H](c2ccc(Cl)c(Cc3ccc(O[C@H]4CCOC4)cc3)c2)[C@H](O)[C@@H](O)[C@@H]1O [empagliflozin, 1-chloro-4-(β-D-glucopyranos-1-yl)-2-[4-((S)-tetrahydrofuran-3-yloxy)-benzyl]benzene]
AEs consistent with genital infection, patients ([1]; EMPA 10 mg qd): 6.1% | AEs consistent with urinary tract infection, patients ([1]; EMPA 10 mg qd): 10.2% | Hypoglycemia (plasma glucose ≤70 mg/dL and/or requiring assistance), patients ([1]; EMPA 10 mg qd): 23.5% | adverse events (AEs) reported, patients ([1]; EMPA 10 mg qd, week 24, all patients): 79.6% | AEs consistent with genital infection, patients ([1]; EMPA 25 mg qd): 2.5% | AEs consistent with urinary tract infection, patients ([1]; EMPA 25 mg qd): 9.0% | Hypoglycemia (plasma glucose ≤70 mg/dL and/or requiring assistance), patients ([1]; EMPA 25 mg qd): 22.1% | adverse events (AEs) reported, patients ([1]; EMPA 25 mg qd, week 24, all patients incl. exploratory severe RI group): 75.4% | difference to placebo for the adjusted mean change in HbA1c from baseline ([1]; Week 24, moderate A renal impairment): −0.46% | difference to placebo for the adjusted mean change in HbA1c from baseline ([1]; Week 24, moderate B renal impairment): −0.39% | tolerability ([1]; patients with T2DM and mild or moderate RI): well tolerated | BP ([1]; week 24, further analyses): significant reductions | FPG ([1]; week 24, further analyses): significant reductions | weight ([1]; week 24, further analyses): significant reductions | HbA1c vs PBO ([1]; week 24, mild or moderate RI): significantly reduced | IC50 ([2]; Homo sapiens, model parameter estimate, three Phase I/II trials, N=223, read-out: IC50, half maximal inhibitory concentration for renal glucose absorption (95% CI)): 5.28 nM | RTG (renal threshold for glucose) ([2]; dose 1 mg): 100.5 mg/dL | RTG (renal threshold for glucose) ([2]; dose 5 mg): 43.8 mg/dL | RTG (renal threshold for glucose) ([2]; dose 10 mg): 33.1 mg/dL | RTG (renal threshold for glucose) ([2]; dose 25 mg): 26.0 mg/dL | Imax, maximum inhibitory effect on renal glucose absorption (95% CI) ([2]; model parameter estimate, three Phase I/II trials, N=223): 0.559 (0.545, 0.607) | AEs consistent with urinary tract infection, patients ([3]; CKD stage 3A): 16.5% | AEs consistent with volume depletion, patients ([3]; CKD stage 3A): 4.4% | adverse events (AEs) reported, patients ([3]; CKD stage 3A): 86.8% | AEs consistent with urinary tract infection, patients ([3]; CKD stage 3B): 16.7% | AEs consistent with volume depletion, patients ([3]; CKD stage 3B): 3.1% | adverse events (AEs) reported, patients ([3]; CKD stage 3B): 80.2% | AEs consistent with urinary tract infection, patients ([3]; CKD stage 4): 18.9% | AEs consistent with volume depletion, patients ([3]; CKD stage 4): 5.4% | adverse events (AEs) reported, patients ([3]; CKD stage 4): 91.9% | DBP ([3]; week 52, CKD stage 3A): significantly reduced | FPG ([3]; week 52, CKD stage 3A): significantly reduced | HbA1c vs PBO ([3]; week 52, CKD stage 3A): significantly reduced | SBP ([3]; week 52, CKD stage 3A): significantly reduced | weight ([3]; week 52, CKD stage 3A): significantly reduced | FPG ([3]; week 52, CKD stage 3B): significantly reduced | HbA1c vs PBO ([3]; week 52, CKD stage 3B): significantly reduced | weight ([3]; week 52, CKD stage 3B): significantly reduced | BP ([3]; week 52, CKD stage 4): Reductions | FPG ([3]; week 52, CKD stage 4): Reductions | HbA1c ([3]; week 52, CKD stage 4): did not reduce | weight ([3]; week 52, CKD stage 4): Reductions

CN(C)C(=N)N=C(N)N [metformin]
average improvement in the HbA1c value [4]: 1.0-1.5%
